Results on six compounds are retold here after the NIST ThermoML archive (doi:10.1021/je049556i).

For data set [1] the following is noted: 101 kPa, Liquid.
Data set [2] is described as follows: xn = mol fraction of the nth substance listed. The note with it: 101 kPa, Liquid, x2 = 0.

± gives the expanded uncertainty stated by the source.

By mass density is commonly meant the mass of a sample divided by its volume. As usually defined, the viscosity is the resistance of a fluid to flow. For `CCCCO` [butan-1-ol], the mass density is recorded as 805.84 ± 2.4 kg/m3 in data set [1] (298.15 K), 802 ± 2.4 kg/m3 in data set [1] (303.15 K) and 798.2 ± 2.4 kg/m3 in data set [1] (308.15 K). Moreover, the viscosity in data set [1] (298.15 K) was 2.618 ± 0.1 mPa·s; in data set [1] (303.15 K) it was 2.297 ± 0.089 mPa·s; in data set [1] (308.15 K), 2.032 ± 0.08 mPa·s.
On to `CCCCO` [butan-1-ol] + CC1OC(C)OC(C)O1, for which the mass density in data set [2] (298.15 K) was 805.84 ± 2.4 kg/m3; in data set [2] (303.15 K) it was 802 ± 2.4 kg/m3; in data set [2] (308.15 K), 798.2 ± 2.4 kg/m3. Moreover, the viscosity in data set [2] (298.15 K) is on record as 2.618 ± 0.1 mPa·s; in data set [2] (303.15 K) it was 2.297 ± 0.089 mPa·s; in data set [2] (308.15 K), 2.032 ± 0.08 mPa·s.
Consider `CCO` [ethanol], for which the mass density turned out to be 785.06 ± 2.3 kg/m3 in data set [1] (298.15 K), 780.74 ± 2.4 kg/m3 in data set [1] (303.15 K) and 776.48 ± 2.4 kg/m3 in data set [1] (308.15 K). Moreover, the figures for the viscosity in data set [1] (298.15 K), in data set [1] (303.15 K) and in data set [1] (308.15 K) were 1.083 ± 0.044 mPa·s, 0.99 ± 0.04 mPa·s and 0.895 ± 0.037 mPa·s, respectively.
On to `CCO` [ethanol] + CC1OC(C)OC(C)O1, for which the mass density in data set [2] (298.15 K) amounted to 785.06 ± 2.3 kg/m3; in data set [2] (303.15 K) it was 780.74 ± 2.4 kg/m3; in data set [2] (308.15 K), 776.48 ± 2.4 kg/m3. For the same compound, the results for the viscosity in data set [2] (298.15 K), in data set [2] (303.15 K) and in data set [2] (308.15 K) were 1.083 ± 0.044 mPa·s, 0.99 ± 0.04 mPa·s and 0.895 ± 0.037 mPa·s, respectively.
Regarding `CCCO` [propan-1-ol], the mass density amounted to 799.6 ± 2.4 kg/m3 in data set [1] (298.15 K), 794.64 ± 2.4 kg/m3 in data set [1] (303.15 K) and 790.53 ± 2.4 kg/m3 in data set [1] (308.15 K). For the same compound, the viscosity in data set [1] (298.15 K) came out at 1.943 ± 0.076 mPa·s; in data set [1] (303.15 K) it was 1.725 ± 0.068 mPa·s; in data set [1] (308.15 K) it was 1.537 ± 0.061 mPa·s.
`CCCO` [propan-1-ol] + CC1OC(C)OC(C)O1: the mass density stood at 799.6 ± 2.4 kg/m3 in data set [2] (298.15 K), 794.64 ± 2.4 kg/m3 in data set [2] (303.15 K) and 790.53 ± 2.4 kg/m3 in data set [2] (308.15 K). Moreover, the values for the viscosity in data set [2] (298.15 K), in data set [2] (303.15 K) and in data set [2] (308.15 K) were 1.943 ± 0.076 mPa·s, 1.725 ± 0.068 mPa·s and 1.537 ± 0.061 mPa·s, respectively.
